Measured values published in patent publication US20220275341A1, “ORGANOID MESODERM LINEAGE DIVERSIFICATION” (CHILDREN'S HOSPITAL MEDICAL CENTER, priority 2019, published 2022).

Test system: hPSC-derived primitive splanchnic mesoderm (SM)
Experiment: Treatment of hPSC-derived primitive SM from d4-d7 with HH, RA, Wnt and BMP agonists or antagonists; RT-PCR, immunostaining, RNA-scope
Assay type: cell-based, human
Procedure: For RNAscope on mouse tissue, fixed embryos were immersed in 30% sucrose/PBS overnight, embedded in OCT, cryosectioned (12 μm) onto Superfrost Plus slides (Thermo Fisher) and stored at −80° C. overnight. For RNAscope of adherent hPSC culture, cells were differentiated on Geltrex-coated u-Slide 8 well (ibid) and fixed in 4% PFA at room temperature for 30 min, Cells were dehydrated with ethanol gradient and stored in 100% ethanol at −20° C. RNAscope fluorescent in situ hybridization was conducted with RNAscope Multiplex Fluorescent Detection Reagents V2 (Advanced Cell Diagnostics, Inc.) and Opal fluorophore (Akoya Biosciences) according to manufacturer's instructions.
Differentiation of hPSCs into lateral plate mesoderm was induced using previously described methods with modifications. In brief, partially confluent hPSCs were dissociated into very fine clumps in Accutase (Invitrogen) and passaged 1:18 onto new Geltrex-coated 24-well plates for immunocytochemistry and 12-well plates for RNA preparation in mTeSR1 with 1 μM thiazovivin (Tocris) (Day 1). […]
Total RNA was prepared from differentiating human ES cells by using Nucleospin kit according to manufacturer's protocol. […] Significance was determined by one-way ANOVA, followed by Tukey's test. […]

For c1ccc2c(Oc3nc(Nc4ccc(N5CCOCC5)cc4)c4ncn(C5CCCCC5)c4n3)cccc2c1 [HH-agonist, purmorphamine], the gut tube identity was “promoted” and the hepatic fate was “efficiently blocked”.
